Converted amounts (≈) assume the structure as drawn. Counter-ions that a name gives are not always drawn.
Tested on: voltage operated calcium channels
Test: inhibition of depolarization-stimulated 45Ca uptake into brain synaptosomes
Type: biochemical, male Wistar rat
Settings: inhibition of K+-stimulated 45Ca uptake, rat cerebral cortex synaptosomes (P2), 15 s incubation
Excerpt: The pharmacological properties of the compounds of the invention can be illustrated by determining their capability to inhibit calcium uptake into brain synaptosomes.
Depolarization of neuronal membranes leads to an opening of socalled `voltage operated calcium channels` (VOC) in the membranes which allows a massive influx of calcium from the extracellular space. A crude synaptosomal preparation (socalled P2 fraction) contains small vesicles surrounded by neuronal membrane and it is possible in such a preparation to study a depolarization-induced opening of VOC.
A male Wistar rat is decapitated and the cerebral cortex removed and homogenized in 20 ml. of ice-cold 0.32 M sucrose using a glass homogenizer with a teflon pestle. All subsequent steps for isolation of synaptosomes are done at 0°-4° C. The homogenate is centrifuged at 1000×g for 10 min and the resulting supernatant is re-centrifuged at 18000×g for 20 min. This pellet (P2) is resuspended in 0.32 M sucrose (10 ml per g of original tissue) with a teflon pestle.
The tubes are pre-incubated for 30 min on ice and then for 6 min at 37° C. in a water bath.
The incubation is continued for 15 s.
The amount of radioactivity on the filter disc is determined by liquid scintillation spectrometry.
Test substances are dissolved in 10 ml of 48% ethanol at a concentration of 0.44 mg/ml. Dilutions are made in 48% ethanol to give final concentrations of 0.1, 0.3, 1, 3 and 0 10 μg/ml. Experiments are performed in duplicate. Controls for depolarized and nondepolarized samples are included in the assay and test substances are only tested in depolarized samples.
The IC50 value is estimated from dose response curves.

SMILES | IC50 [µg/mL]
CCN1CC[C@@H](c2ccc(F)cc2)[C@H](COc2ccc(C(C)(C)C)cc2)C1.Cl (relative stereo) [trans-1-ethyl-4-(4-fluorophenyl)-3-(4-t-butylphenoxymethyl)piperidine hydrochloride] | 2.5
CCCCN1CC[C@@H](c2ccc(F)cc2)[C@H](COc2ccc3c(c2)OCO3)C1 (single isomer, unassigned) | 1.9 (≈ 4.93 µM)
CCCCN1CC[C@@H](c2ccc(F)cc2)[C@H](COc2ccc(OC)cc2)C1 (single isomer, unassigned) | 2.3 (≈ 6.19 µM)
CCCCCN1CC[C@@H](c2ccc(F)cc2)[C@H](COc2ccc3c(c2)OCO3)C1 (single isomer, unassigned) | 1.5 (≈ 3.75 µM)
CCCCCN1CC[C@@H](c2ccccc2)[C@H](COc2ccc3c(c2)OCO3)C1 (single isomer, unassigned) | 2.4 (≈ 6.29 µM)
CCCCCN1CC[C@@H](c2ccc(F)cc2)[C@H](COc2ccc3c(c2)CCCC3)C1 (single isomer, unassigned) | 0.4 (≈ 0.977 µM)
C=CCN1CC[C@@H](c2ccc(F)cc2)[C@H](COc2ccc3c(c2)OCO3)C1 (single isomer, unassigned) [(-)--trans-4-(-4-fluorophenyl)-3-(3,4-methylenedioxyphenoxymethyl)-1-allyl-piperidine hydrochloride] | 0.8
COc1ccc(OC[C@@H]2CN(C(C)C)CC[C@H]2c2ccc(F)cc2)cc1.Cl (single isomer, unassigned) [(-)-trans-1-isopropyl-4-(4-fluorophenyl)-3-(4-methoxyphenoxymethyl)-piperidine hydrochloride] | 4.3
CCCCCCCCN1CC[C@@H](c2ccc(F)cc2)[C@H](COc2ccc3c(c2)OCO3)C1 (single isomer, unassigned) [(-)-trans-4-(-4-fluoropheny1)-3-(3,4-methylenedioxyphenoxymethyl)-1-octylpiperidine hydrochloride] | 2.2

Tested on: peripheral calcium uptake, e.g. in blood vessels and the heart
Test: not given
Settings: cited from earlier work

SMILES | activity against peripheral calcium uptake
COc1ccc([C@@H]2Sc3ccccc3N(CCN(C)C)C(=O)[C@@H]2OC(C)=O)cc1 [Diltiazem] | have activity
COC(=O)C1=C(C)NC(C)=C(C(=O)OC)C1c1ccccc1[N+](=O)[O-] [Nifedipin] | have activity
COc1ccc(CCN(C)CCCC(C#N)(c2ccc(OC)c(OC)c2)C(C)C)cc1OC (stereo not drawn) [Verapamil] | have activity
